# Assay results: US11130960B2, “Methods for conferring or enhancing herbicide resistance on plants and/or alga with protoporphyrinogen oxidase variants” (FARM HANNONG CO., LTD., priority 2014, dated 2021)
# Entries after “also recorded” stand apart in the source; their conditions may differ.
# Assays:
# CyPPO8 = test: Growth of transformed BT3(ΔPPO) E. coli in LB liquid medium (OD600); type: cell-based, Halothece sp. PCC 7418; details: 37° C., OD600 over culture time
# Experimental: In Example 3, herbicide resistance of respective BT3(ΔPPO) strains transformed with the wild-type AtPPO1, mutant AtPPO1, CyPPO2, CyPPO4 or CyPPO8 gene was investigated on agar media containing different herbicides, and in this Example, herbicide resistance of the strains was investigated in LB liquid media containing different herbicides.
# HV-50 autoclave from Hirayama, HS2100A electronic scale from Hansung Instrument, CB-30V clean bench from Jeio Tech, JSI-200CL incubator from JSR, MQ-200 photometer from Apogee, and 1210 type UV-visible spectrophotometer from Thermo Fisher Scientific were used. The autoclave was used under conditions of 121° C. and 15 minutes, and the incubator was used at 37° C. with lighting of 160˜200 μmol m^−2s^−1 for a culture time of 13.5 hours. The UV-visible spectrophotometer was used at 600 nm.
# Tiafenacil (M.W. 511.87 g/mol), Saflufenacil (M.W. 500.85 g/mol), and Fomesafen (M.W. 438.76 g/mol) used in the experiment were purchased from Dongbu Farm Hannong Co., Ltd, Sigma, and Sigma, respectively. […]
# For seed culture of E. coli transformed with respective genes, single colonies thereof were cultured in 3 ml of LB broth containing chloramphenicol for 12 hours, and they were diluted with LB broth to absorbance (OD600) of 1.5. […] Absorbance (OD600) was measured using a spectrophotometer every 1.5 hours. […]
# [1] = system: wild-type Arabidopsis thaliana (Col-0); test: Seed germination / growth on ½ MS medium containing herbicide; type: in vivo; details: for germination / growth on herbicide medium after 2 weeks: ½ MS medium with 70 nM Tiafenacil
# Experimental: (§1) To examine tiafenacil resistance of T2 generation seeds which survived under treatment of 1 μM tiafenacil, among the CyPPO2 and CyPPO8 transformants, Arabidopsis thaliana seeds were sown in ½ MS medium (1.125 g/L of MS salt, 10 g/L of sucrose, 7 g/L of Agar) containing 70 nM tiafenacil. […] Therefore, survival under 70 nM tiafenacil means that a plant has resistance against tiafenacil.
# (§2) In Arabidopsis thaliana transformant including CyPPO2 or CyPPO8 gene, which was obtained by transformation using the plant transformation vector prepared in Example 6, the PPO activity-inhibiting herbicide-resistant gene and glufosinate-resistant gene are expressed at the same time. Therefore, it was examined whether cross-treatment of Arabidopsis thaliana transformant with two herbicides, namely, PPO activity-inhibiting herbicide and glufosinate is effective for weed control. To this end, seeds of CyPPO2 and BAR gene-inserted Arabidopsis thaliana transformant, or CyPPO8 and BAR gene-inserted Arabidopsis thaliana transformant were sterilized and treated at low temperature of 4° C. for 2 days. The seeds were sown in a ½ MS medium (Duchefa), a ½MS medium containing 70 nM Tiafenacil, a ½MS medium containing 50 uM glufosinate, or a ½MS medium containing 70 nM Tiafenacil and 50 uM glufosinate, and grown at 23° C. under 16 hour-light/8 hour-dark conditions for 7-14 days. Arabidopsis thaliana on the herbicide media was CyPPO2 or CyPPO8-transformed seed and the wild-type Col0 as a control, respectively. The transformant and the control were cultured on herbicide media. After 2 weeks, they were examined.
# (§3) In Example 9, it was confirmed that Arabidopsis thaliana transformant prepared in the present invention has resistance against the two PPO-based herbicides, Tiafenacil and Saflufenacil at the same time, and therefore, it was tested whether the cross-treatment of Arabidopsis thaliana transformant with Tiafenacil and Saflufenacil is effective for weed control. To this end, seeds of CyPPO2 or CyPPO8 gene-inserted Arabidopsis thaliana transformant were sterilized and treated at low temperature of 4° C. for 2 days. The seeds were sown in a ½ MS medium, a ½MS medium containing 70 nM Tiafenacil, a ½MS medium containing 70 nM Saflufenacil, or a ½MS medium containing 35 nM Tiafenacil and 35 nM Saflufenacil, and grown at 23° C. under 16 hour-light/8 hour-dark conditions for 7-14 days. Arabidopsis thaliana on the herbicide media was CyPPO2 or CyPPO8-transformed seed and the wild-type Col0 as a control, respectively. The transformant and the control were cultured on herbicide media. After 2 weeks, they were examined.
# CyPPO2 transformants = test: as above; type: in vivo, Arabidopsis thaliana; details: for germination / growth on herbicide medium after 2 weeks: ½ MS medium with 70 nM Tiafenacil
# Experimental: as §1, §2, §3
# CyPPO8 transformants = test: as above; type: in vivo, Arabidopsis thaliana; details: for germination / growth on herbicide medium after 2 weeks: ½ MS medium with 70 nM Tiafenacil
# Experimental: as §1, §2, §3
# [2] = 70 nM Saflufenacil, or 35 nM Tiafenacil and 35 nM Saflufenacil
Compound,concentration by which the strain normally grew (CyPPO8) [µM],"germination / growth on herbicide medium after 2 weeks [1, 2]",germination / growth on herbicide medium after 2 weeks (CyPPO2 transformants; [2]),germination / growth on herbicide medium after 2 weeks (CyPPO8 transformants; [2]),seed germination ([1]; ½ MS medium containing 50 nM tiafenacil),seed germination ([1]; ½ MS medium containing 70 nM tiafenacil),"germination / growth on herbicide medium after 2 weeks ([1]; 50 uM glufosinate, or 70 nM Tiafenacil and 50 uM glufosinate)","germination / growth on herbicide medium after 2 weeks (CyPPO2 transformants; CyPPO2 and BAR gene-inserted, 50 uM glufosinate, or both)","seed germination (CyPPO2 transformants; ½ MS medium containing 70 nM tiafenacil, T2 generation lines no. 1 and 49)","germination / growth on herbicide medium after 2 weeks (CyPPO8 transformants; CyPPO8 and BAR gene-inserted, 50 uM glufosinate, or both)","seed germination (CyPPO8 transformants; ½ MS medium containing 70 nM tiafenacil, T2 generation lines no. 6, 16 and 40)"
CC(C)N(C)S(=O)(=O)NC(=O)c1cc(-n2c(=O)cc(C(F)(F)F)n(C)c2=O)c(F)cc1Cl [Saflufenacil],≤ 100,not germinated,normally grew,normally grew,,,,,,,
COC(=O)CCNC(=O)C(C)Sc1cc(-n2c(=O)cc(C(F)(F)F)n(C)c2=O)c(F)cc1Cl (stereo not drawn) [Tiafenacil],,not germinated,normally grew,normally grew,reduced seed germination,no normal seed germination and was killed; also recorded: showed no germination,not germinated,normally grew,showed germination,normally grew,showed germination
CS(=O)(=O)NC(=O)c1cc(Oc2ccc(C(F)(F)F)cc2Cl)ccc1[N+](=O)[O-] [Fomesafen],≤ 100,,,,,,,,,,
